Source: patent US20240115663A1, “COMPOSITIONS COMPRISING AT LEAST AN INSULIN AND AN AMYLIN RECEPTOR AGONIST FOR TREATING DIABETES, IN A PATIENT/PERSON HAVING A BMI OF MORE THAN 28 KG/M² AND/OR AN HBA1C OF MORE THAN 7.6%” (ADOCIA, priority 2022, published 2024)

Test: Phase 2 clinical trial of M1Pram vs Humalog in subjects with type 1 diabetes: body weight change after 16 weeks
Type: in vivo, human
Procedure: A phase 2 clinical trial was conducted to confirm the efficacy and safety of M1Pram in subjects with type 1 diabetes (NCT04816890).
The primary objective of the trial was to compare the efficacy of prandial use of M1Pram to Humalog® (insulin lispro) on body weight change after 16 weeks of optimised titration, in combination with a basal insulin.
In addition, exploratory objectives included the comparison of the efficacy of prandial use of M1Pram with Humalog® in subgroups of subjects with a body mass index (BMI) and HbA1c above and below the median at screening.
A post-hoc analysis also included the comparison of the efficacy of prandial use of M1Pram with Humalog® in subgroups of subjects with a body mass index (BMI)>=30 kg/m^2.
The primary endpoint was the body weight change from baseline to week 16 of treatment.
In addition, exploratory endpoints included analysis of the subgroups of the primary endpoint according to BMI and HbA1c below and above the median.
A post-hoc analysis was also performed to analyze the subgroups of the primary endpoint according to BMI>=30 kg/m^2.
This was a multicentric, open-label, randomized, two-arm parallel, active-comparator controlled phase 2 clinical trial evaluating the efficacy and safety of M1Pram in subjects with type 1 diabetes.
Key inclusion criteria included subjects • with T1D • aged between 18 and 64 years • with a Body Mass Index (BMI) between 25.0 and 35.0 kg/m^2, both inclusive, • with HbA1c between 7.0% and 9.5%, both inclusive • with a Diabetes duration of at least 12 months • Using a multiple dosing insulin therapy (MDI) with a basal insulin and a rapid-acting insulin • having at least two meals per day.
80 patients were randomized 1:1 to M1Pram or Humalog®.
The trial consisted in 4 periods: • an optional a run-in period of 2 to 4 weeks for patients not already using the Continuous Glucose Monitoring (CGM) system used in the trial or either insulin degludec or insulin glargine as basal insulins • a 3-week baseline data recording period • after randomization, a treatment period of about 16 weeks (W1 to 16) • and a safety follow-up period of 1 to 2 weeks after the last product administration.
37 subjects completed the trial in the Humalog® arm and 34 in the M1 Pram arm. The subgroups were selected depending on the patients' metrics at screening.

For insulin lispro [Humalog ®], the “Mean BW change in kg (SD)” value (All completers, baseline to week 16 of treatment, T1D subjects, prandial use with basal insulin) was −0.45 (3.12) kg, the “Mean BW change in kg (SD)” value (Subgroup BMI <= 28 kg/m^2 at screening, baseline to week 16) was −0.69 (3.19) kg and the “Mean BW change in kg (SD)” value (Subgroup BMI > 28 kg/m^2 at screening, baseline to week 16) was −0.17 (3.09) kg. For the same substance, the “Mean BW change in kg (SD)” value (Subgroup BMI >= 30 kg/m^2 (post-hoc), baseline to week 16) was −0.57 (3.60) kg, the “Mean BW change in kg (SD)” value (Subgroup HbA1c <= 7.6% at screening, baseline to week 16) was −0.87 (2.20) kg and the “Mean BW change in kg (SD)” value (Subgroup HbA1c > 7.6% at screening, baseline to week 16) was 0.04 (3.95) kg.
